These results are taken from patent publication US8778958B2, “Synthesis of metabolically stable agents for alcohol and drug abuse” (priority 2008, dated 2014).

Where two headings read alike, the source gives them in different places.

One series in a line: Solubility in H2O. To be noted: for Solubility in H2O: salt as labelled; for solubility: water.
The target of the next series is T1, δ-opioid receptor (Homo sapiens, UniProt P41143).
T1 construct: expressed in transfected cells; host or cells: CHO cells
Description: biochemical. In kind it is binding. To be noted: Table 1b; for Ki: N-oxides.

The target in another series is T2, μ-opioid receptor (Homo sapiens, UniProt P35372).
T2 construct: expressed in transfected cells; host or cells: CHO cells
Description: biochemical. In kind it is binding.

The next series concerns the target T3, κ-opioid receptor (Homo sapiens, UniProt P41145).
T3 construct: expressed in transfected cells; host or cells: CHO cells
In words: biochemical. In kind it is binding. The following applies: read-out: Ki (nM) ± SEM, κ.

[1] abbreviates: Ki (nM) ± SEM, μ, Table 1b, N-oxides.

T3 sequence (P41145 whole entry): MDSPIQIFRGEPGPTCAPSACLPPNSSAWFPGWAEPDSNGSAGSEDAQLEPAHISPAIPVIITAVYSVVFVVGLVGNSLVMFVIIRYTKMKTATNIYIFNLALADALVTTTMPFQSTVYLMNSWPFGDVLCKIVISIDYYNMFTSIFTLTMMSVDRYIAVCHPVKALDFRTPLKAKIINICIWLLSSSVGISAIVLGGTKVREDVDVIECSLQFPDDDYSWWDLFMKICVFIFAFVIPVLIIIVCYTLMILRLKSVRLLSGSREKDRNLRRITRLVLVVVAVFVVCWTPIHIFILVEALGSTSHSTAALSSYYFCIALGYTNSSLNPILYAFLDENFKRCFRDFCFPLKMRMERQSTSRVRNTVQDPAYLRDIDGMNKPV
T2 sequence (P35372 whole entry): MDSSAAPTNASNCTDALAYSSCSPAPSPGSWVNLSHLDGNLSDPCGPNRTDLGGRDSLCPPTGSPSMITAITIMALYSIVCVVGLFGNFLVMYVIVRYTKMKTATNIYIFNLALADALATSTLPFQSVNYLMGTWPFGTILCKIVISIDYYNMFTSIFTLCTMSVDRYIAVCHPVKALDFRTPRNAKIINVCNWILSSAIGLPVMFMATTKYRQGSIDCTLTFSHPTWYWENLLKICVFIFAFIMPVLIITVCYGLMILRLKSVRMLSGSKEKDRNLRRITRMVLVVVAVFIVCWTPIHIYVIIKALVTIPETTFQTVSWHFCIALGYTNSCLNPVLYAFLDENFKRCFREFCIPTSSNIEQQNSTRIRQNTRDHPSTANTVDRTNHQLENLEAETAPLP
T1 sequence (P41143 whole entry): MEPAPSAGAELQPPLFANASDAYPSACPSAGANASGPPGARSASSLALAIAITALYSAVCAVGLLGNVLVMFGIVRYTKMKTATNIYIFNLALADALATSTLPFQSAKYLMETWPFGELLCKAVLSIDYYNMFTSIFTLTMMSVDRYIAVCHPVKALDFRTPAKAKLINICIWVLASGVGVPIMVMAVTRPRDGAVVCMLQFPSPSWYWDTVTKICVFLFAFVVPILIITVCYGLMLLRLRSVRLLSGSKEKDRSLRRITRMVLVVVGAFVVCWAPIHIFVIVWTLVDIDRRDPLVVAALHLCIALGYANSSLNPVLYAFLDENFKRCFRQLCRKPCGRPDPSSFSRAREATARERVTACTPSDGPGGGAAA

`Cc1ccc(C(=O)N[C@@H]2CC[C@@]3(O)[C@H]4Cc5ccc(O)c6c5[C@@]3(CCN4CC3CC3)[C@H]2O6)cc1.O=C(O)C(=O)O` [Compound 4-oxalate, 6-β-(4′-Methyl)benzamido-14-hydroxy-17-(cyclopropylmethyl) nordesmorphine oxalate]: the “Solubility in H2O” value in the series “Solubility in H2O” was determined as 2000 µg/mL. Regarding `CN(C(=O)c1ccc(Cl)c(Cl)c1)[C@@H]1CC[C@@]2(O)[C@H]3Cc4ccc(O)c5c4[C@@]2(CCN3CC2CC2)[C@H]1O5.O=C(O)C(=O)O` [18b—Oxalate, 6-β-(3′,4′-Dichloro)-N-methylbenzamido-14-hydroxy-17-(cyclopropylmethyl)nordesmorphine oxalate], the “Solubility in H2O” value in the series “Solubility in H2O” is 16000 µg/mL. On the same count and under the same terms, the same measure for `CN(C(=O)c1ccc(Cl)c(Cl)c1)[C@H]1CC[C@@]2(O)[C@H]3Cc4ccc(O)c5c4[C@@]2(CCN3CC2CC2)[C@H]1O5.O=C(O)C(=O)O` [18a—Oxalate, 6-α-(3′,4′-Dichloro)-N-methylbenzamido-14-hydroxy-17-(cyclopropylmethyl)nordesmorphine oxalate]: 6700 µg/mL. `CN(C(=O)c1ccc(Br)cc1)[C@@H]1CC[C@@]2(O)[C@H]3Cc4ccc(O)c5c4[C@@]2(CCN3CC2CC2)[C@H]1O5.O=C(O)C(=O)O` [14b. Oxalate, 6-β-(4′-Bromo)-N-methylbenzamido-14-hydroxy-17-(cyclopropylmethyl)nordesmorphine Oxalate]: the “Solubility in H2O” value in the series “Solubility in H2O” stood at 20000 µg/mL.

In the case of `CN(C(=O)c1ccc(I)cc1)[C@H]1CC[C@@]2(O)[C@H]3Cc4ccc(O)c5c4[C@@]2(CCN3CC2CC2)[C@H]1O5.O=C(O)C(=O)O` [15a—Oxalate, 6-α-(4′-Iodo)-N-methylbenzamido-14-hydroxy-17-(cyclopropylmethyl)nordesmorphine oxalate], the “Solubility in H2O” value in the series “Solubility in H2O” came to 5000 µg/mL. As to `O=C(N[C@@H]1CC[C@@]2(O)[C@H]3Cc4ccc(O)c5c4[C@@]2(CCN3CC2CC2)[C@H]1O5)c1ccc(C(F)(F)F)cc1.O=C(O)C(=O)O` [Compound 5-oxalate, 6-β-(4′-Trimethylfluoro)benzamido-14-hydroxy-17-(cyclopropylmethyl)nordesmorphine-oxalate], the “Solubility in H2O” value in “Solubility in H2O” was determined as 1000 µg/mL.

Compound `CN(C(=O)/C=C/c1ccoc1)[C@H]1CC[C@@]2(O)[C@H]3Cc4ccc(O)c5c4[C@@]2(CCN3CC2CC2)[C@H]1O5.O=C(O)C(=O)O` (relative stereo) [20a—Oxalate, 17-Cyclopropylmethyl-3,14β-dihydroxy-4,5α-epoxy-6α-[N-methyl-trans-3-(3-furyl)acrylamido]morphinan oxalate] showed a solubility in the series “Solubility in H2O” of 16000 µg/mL.

`CN(C(=O)c1ccc(Cl)cc1)[C@H]1CC[C@@]2(O)[C@H]3Cc4ccc(O)c5c4[C@@]2(CCN3CC2CC2)[C@H]1O5.O=C(O)C(=O)O` [17a—Oxalate, 6-α-(4′-Chloro)-N-methylbenzamido-14-hydroxy-17-(cyclopropylmethyl)nordesmorphine oxalate]: the “Solubility in H2O” value in “Solubility in H2O” was 10000 µg/mL. In the case of `CN(C(=O)/C=C/c1ccoc1)[C@@H]1CC[C@@]2(O)[C@H]3Cc4ccc(O)c5c4[C@@]2(CCN3CC2CC2)[C@H]1O5.O=C(O)C(=O)O` (relative stereo) [Compound 20b-oxalate, 17-Cyclopropylmethyl-3,14β-dihydroxy-4,5α-epoxy-6β-[N-methyl-trans-3-(3-furyl)acrylamido]morphinan oxalate], the solubility in “Solubility in H2O” stood at 32000 µg/mL. `CN(C(=O)c1ccc(Br)cc1)[C@H]1CC[C@@]2(O)[C@H]3Cc4ccc(O)c5c4[C@@]2(CCN3CC2CC2)[C@H]1O5.O=C(O)C(=O)O` [14a—Oxalate, 6-α-(4′-Bromo)-N-methylbenzamido-14-hydroxy-17-(cyclopropylmethyl)nordesmorphine oxalate]: the “Solubility in H2O” value in “Solubility in H2O” came out at 6700 µg/mL.

`CN(C(=O)c1ccc(C(F)(F)F)cc1)[C@@H]1CC[C@@]2(O)[C@H]3Cc4ccc(O)c5c4[C@@]2(CCN3CC2CC2)[C@H]1O5.O=C(O)C(=O)O` [13b—Oxalate, 6-β-(4′-Trifluoromethyl)-N-methylbenzamido-14-hydroxy-17-(cyclopropylmethyl)nordesmorphine oxalate]: the “Solubility in H2O” value in the series “Solubility in H2O” was found to be 4700 µg/mL. For `CN(C(=O)c1ccc(I)cc1)[C@@H]1CC[C@@]2(O)[C@H]3Cc4ccc(O)c5c4[C@@]2(CCN3CC2CC2)[C@H]1O5.O=C(O)C(=O)O` [15b—Oxalate, 6-β-(4′-Iodo)-N-methylbenzamido-14-hydroxy-17-(cyclopropylmethyl)nordesmorphine oxalate], the “Solubility in H2O” value in the series “Solubility in H2O” stood at 20000 µg/mL. In the case of `Cc1ccc(C(=O)N[C@@H]2CC[C@@]3(O)[C@H]4Cc5ccc(O)c6c5[C@@]3(CC[N+]4(C)[O-])[C@H]2O6)cc1` (stereo partly drawn) [Compound 55, 17-Methyl-3,14β-dihydroxy-4,5α-epoxy-6β-[(4′-methyl)benzamido]morphinan-N-oxide], the “Inhibition of agonist binding, δ” value on δ-opioid receptor (concentration not given) is on record as less than 50% inh. For the same compound, the results for the Ki on μ-opioid receptor (setting [1]) and at κ-opioid receptor were 244 ± 8.2 nM and 1190 ± 134 nM, respectively.

`CN(C(=O)c1ccc(Cl)cc1)[C@H]1CC[C@@]2(O)[C@H]3Cc4ccc(O)c5c4[C@@]2(CC[N+]3([O-])CC2CC2)[C@H]1O5` (stereo partly drawn) [Compound 50, 17-Cyclopropylmethyl-3,14-β-dihydroxy-4,5α-epoxy-6α-N-methyl-[(4′-chloro)benzamido]morphinan-N-oxide]: the inhibition constant Ki at δ-opioid receptor (read-out: Ki (nM) ± SEM, δ) amounted to 3330 ± 160 nM; at μ-opioid receptor (read-out: Ki (nM) ± SEM, μ) it was 369 ± 18 nM; at κ-opioid receptor (Table 1b, N-oxides), 77 ± 8 nM. For the compound `CC(C)(C)c1ccc(C(=O)N[C@@H]2CC[C@@]3(O)[C@H]4Cc5ccc(O)c6c5[C@@]3(CCN4CC3CC3)[C@H]2O6)cc1.O=C(O)C(=O)O` [Compound 8-oxalate, 6-β-(4′-t-Butyl)benzamido-14-hydroxy-17-(cyclopropylmethyl)nordesmorphine-oxalate], the “Solubility in H2O” value in “Solubility in H2O” stood at 6000 µg/mL. With `CN(C)c1ccc(C(=O)N[C@@H]2CC[C@@]3(O)[C@H]4Cc5ccc(O)c6c5[C@@]3(CC[N+]4([O-])CC3CC3)[C@H]2O6)cc1` (stereo partly drawn) [Compound 24, 17-Cyclopropylmethyl-3,14β-dihydroxy-4,5α-epoxy-6β-[(4′-dimethylamino)benzamido]morphinan-N-oxide], the Ki came out at 5850 ± 560 nM at δ-opioid receptor (read-out: Ki (nM) ± SEM, δ); 478 ± 23 nM at μ-opioid receptor (read-out: Ki (nM) ± SEM, μ); 227 ± 48.1 nM at κ-opioid receptor (Table 1b, N-oxides). Regarding `O=C(N[C@@H]1CC[C@@]2(O)[C@H]3Cc4ccc(O)c5c4[C@@]2(CC[N+]3([O-])CC2CC2)[C@H]1O5)c1ccc(Cl)c(Cl)c1` (stereo partly drawn) [Compound 43, 17-Cyclopropylmethyl-3,14β-dihydroxy-4,5α-epoxy-6β-[(3′,4′-dichloro)benzamido]morphinan-N-oxide], the Ki at δ-opioid receptor (Ki (nM) ± SEM, δ) was found to be 212 ± 11 nM; on μ-opioid receptor (setting [1]) it was 3.6 ± 0.43 nM; on κ-opioid receptor, 2 ± 0.2 nM.

As for `O=C(/C=C/c1ccoc1)N[C@@H]1CC[C@@]2(O)[C@H]3Cc4ccc(O)c5c4[C@@]2(CCN3CC2CC2)[C@H]1O5.O=C(O)C(=O)O` (relative stereo) [Compound 19b.Oxalate, 17-Cyclopropylmethyl-3,14β-dihydroxy-4,5α-epoxy-6β-[-trans-3-(3-furyl)acrylamido]morphinan oxalate], the solubility in the series “Solubility in H2O” turned out to be 24000 µg/mL. As for `CN(C(=O)c1ccc(C(C)(C)C)cc1)[C@H]1CC[C@@]2(O)[C@H]3Cc4ccc(O)c5c4[C@@]2(CC[N+]3([O-])CC2CC2)[C@H]1O5` (stereo partly shown) [Compound 48], the Ki at δ-opioid receptor (read-out: Ki (nM) ± SEM, δ) was 148 ± 10 nM; on μ-opioid receptor (read-out: Ki (nM) ± SEM, μ), 26 ± 2 nM; at κ-opioid receptor (Table 1b, N-oxides), 14 ± 1 nM.

For the compound `NC(=NO)c1cccc(C(=O)NC2CCC3(O)C4Cc5ccc(O)c6c5C3(CC[N+]4([O-])CC3CC3)C2O6)c1` (stereo not shown) [Compound 52], the Ki on δ-opioid receptor (Ki (nM) ± SEM, δ) was found to be 1220 ± 45 nM; at μ-opioid receptor (setting [1]), 114 ± 3.3 nM; at κ-opioid receptor, 26 ± 1.81 nM.

`COC(=O)c1ccc(C(=O)N[C@@H]2CC[C@@]3(O)[C@H]4Cc5ccc(O)c6c5[C@@]3(CC[N+]4([O-])CC3CC3)[C@H]2O6)cc1` (stereo partly drawn) [Compound 38, 17-Cyclopropylmethyl-3,14β-dihydroxy-4,5α-epoxy-6β-[(4′-carbomethoxy)benzamido]morphinan-N-oxide]: the Ki came out at 1390 ± 279 nM on δ-opioid receptor (Ki (nM) ± SEM, δ); 30 ± 2.1 nM on μ-opioid receptor (setting [1]); 51 ± 6 nM at κ-opioid receptor. In the case of `CN(C(=O)c1ccc(Cl)cc1)[C@@H]1CC[C@@]2(O)[C@H]3Cc4ccc(O)c5c4[C@@]2(CCN3CC2CC2)[C@H]1O5.O=C(O)C(=O)O` [17b—Oxalate, 6-β-(4′-Chloro)-N-methylbenzamido-14-hydroxy-17-(cyclopropylmethyl)nordesmorphine oxalate], in the series “Solubility in H2O”, the “Solubility in H2O” value was 6000 µg/mL.

In the case of `CN(C(=O)c1ccc(C(C)(C)C)cc1)[C@H]1CC[C@@]2(O)[C@H]3Cc4ccc(O)c5c4[C@@]2(CCN3CC2CC2)[C@H]1O5.O=C(O)C(=O)O` [16a—Oxalate, 6-α-(4′-t-Butyl)-N-methylbenzamido-14-hydroxy-17-(cyclopropylmethyl)nordesmorphine oxalate], in “Solubility in H2O”, the “Solubility in H2O” value is 3300 µg/mL. Consider “17-Cyclopropylmethyl-3,14β-dihydroxy-4,5α-epoxy-6α-(6-acetamido-2,3,4,6-tetra-O-benzyl-D-pyranose)morphinan-N-oxide [Compound 36]”, for which the inhibition constant Ki on δ-opioid receptor (read-out: Ki (nM) ± SEM, δ) amounted to 1860 ± 144 nM; on μ-opioid receptor (read-out: Ki (nM) ± SEM, μ), 308 ± 13 nM; at κ-opioid receptor (Table 1b, N-oxides) it was 18 ± 1 nM. In the case of `O=C(N[C@@H]1CC[C@@]2(O)[C@H]3Cc4ccc(O)c5c4[C@@]2(CC[N+]3([O-])CC2CC2)[C@H]1O5)c1ccccc1` (stereo partly drawn) [Compound 32, 17-Cyclopropylmethyl-3,14β-dihydroxy-4,5α-epoxy-6β-(benzamido)morphinan-N-oxide], the inhibition constant Ki on δ-opioid receptor (Ki (nM) ± SEM, δ) was found to be 813 ± 34 nM; on μ-opioid receptor (setting [1]) it was 28 ± 2 nM; at κ-opioid receptor, 8.5 ± 0.92 nM. With `COc1ccc(CC(=O)N[C@@H]2CC[C@@]3(O)[C@H]4Cc5ccc(O)c6c5[C@@]3(CC[N+]4([O-])CC3CC3)[C@H]2O6)cc1` (stereo partly drawn) [Compound 39, 17-Cyclopropylmethyl-3,14β-dihydroxy-4,5α-epoxy-6β-[(4′-methoxy)phenylacetamido]morphinan N-oxide], the Ki on δ-opioid receptor (Ki (nM) ± SEM, δ) amounted to 472 ± 78 nM; on μ-opioid receptor (setting [1]), 78 ± 20 nM; at κ-opioid receptor, 10 ± 1 nM.
